Data set [1] deals with receptors (Bioprint panel) (Homo sapiens, UniProt P28335). The experiment in a line: biochemical. Format: binding. The conditions noted are these: read-out: Reference Compound IC50.
Data set [2] concerns the target receptors (Bioprint panel) (Homo sapiens, UniProt P41595). Nature of the data set: biochemical. Format: binding. The conditions noted are these: read-out: Reference Compound IC50.
The target of data set [3] is T1, BRD3(2) (h) bromodomain (Homo sapiens, UniProt Q15059).
T1 construct: Bromodomain
T1 sequence (Q15059 306-415 limits assumed): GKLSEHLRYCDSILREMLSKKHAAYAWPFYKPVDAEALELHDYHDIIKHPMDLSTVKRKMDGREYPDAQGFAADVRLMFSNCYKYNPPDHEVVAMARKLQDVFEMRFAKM
The conditions noted are these: ligand biotin-H4 di acetyl Lys 5/8 100 nM; 30 min/RT; AlphaScreen; read-out: Reference IC50; cited from earlier work. In general terms: Bead proximity is the source of the signal in Alpha formats.

Data set [4] addresses T1, BRD3(2) (h) bromodomain. Nature of the data set: Epigenetic binding assay, Bromodomain. To be noted: Table 4; read-out: Reference IC50.
The target of data set [5] is T2, enzymes (Bioprint panel) (Homo sapiens, UniProt O00408).
T2 construct: other: PDE2A1 (h); 10 μM; PDE2A1 (h)
Nature of the data set: biochemical. To be noted: PDE2A1 (h); read-out: Reference Compound IC50.

For data set [6], the target named is CYP2B6 (Bupropion Substrate) (Homo sapiens, UniProt P20813). The experiment in a line: Cytochrome P450 Inhibition (CYP panel).
Chain of CYP2B6 (Bupropion Substrate) (P20813 whole entry): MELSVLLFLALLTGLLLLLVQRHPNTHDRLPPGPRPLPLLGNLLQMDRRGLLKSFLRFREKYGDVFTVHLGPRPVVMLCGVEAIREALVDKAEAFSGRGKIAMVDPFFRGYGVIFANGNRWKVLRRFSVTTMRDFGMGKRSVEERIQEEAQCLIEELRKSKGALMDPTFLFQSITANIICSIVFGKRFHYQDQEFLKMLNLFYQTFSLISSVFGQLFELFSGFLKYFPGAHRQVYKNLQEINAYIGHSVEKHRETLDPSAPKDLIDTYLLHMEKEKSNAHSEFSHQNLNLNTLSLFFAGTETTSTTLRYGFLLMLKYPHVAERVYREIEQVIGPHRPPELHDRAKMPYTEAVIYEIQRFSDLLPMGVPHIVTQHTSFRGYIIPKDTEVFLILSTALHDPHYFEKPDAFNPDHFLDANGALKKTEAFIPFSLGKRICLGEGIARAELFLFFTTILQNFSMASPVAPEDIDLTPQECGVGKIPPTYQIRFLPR
Data set [7] concerns the target receptors (Bioprint panel) (Homo sapiens, UniProt P41597). Nature of the data set: biochemical. Format: binding. The conditions noted are these: CHEMOKINES CCR2 (h) (agonist radioligand); read-out: Reference Compound IC50.
Data set [8] deals with enzymes (Bioprint panel) (Mus musculus, UniProt P29477). Nature of the data set: biochemical. To be noted: inducible NOS; read-out: Reference Compound IC50.
Chain of enzymes (Bioprint panel) (Mus musculus, UniProt P29477) (P29477 whole entry): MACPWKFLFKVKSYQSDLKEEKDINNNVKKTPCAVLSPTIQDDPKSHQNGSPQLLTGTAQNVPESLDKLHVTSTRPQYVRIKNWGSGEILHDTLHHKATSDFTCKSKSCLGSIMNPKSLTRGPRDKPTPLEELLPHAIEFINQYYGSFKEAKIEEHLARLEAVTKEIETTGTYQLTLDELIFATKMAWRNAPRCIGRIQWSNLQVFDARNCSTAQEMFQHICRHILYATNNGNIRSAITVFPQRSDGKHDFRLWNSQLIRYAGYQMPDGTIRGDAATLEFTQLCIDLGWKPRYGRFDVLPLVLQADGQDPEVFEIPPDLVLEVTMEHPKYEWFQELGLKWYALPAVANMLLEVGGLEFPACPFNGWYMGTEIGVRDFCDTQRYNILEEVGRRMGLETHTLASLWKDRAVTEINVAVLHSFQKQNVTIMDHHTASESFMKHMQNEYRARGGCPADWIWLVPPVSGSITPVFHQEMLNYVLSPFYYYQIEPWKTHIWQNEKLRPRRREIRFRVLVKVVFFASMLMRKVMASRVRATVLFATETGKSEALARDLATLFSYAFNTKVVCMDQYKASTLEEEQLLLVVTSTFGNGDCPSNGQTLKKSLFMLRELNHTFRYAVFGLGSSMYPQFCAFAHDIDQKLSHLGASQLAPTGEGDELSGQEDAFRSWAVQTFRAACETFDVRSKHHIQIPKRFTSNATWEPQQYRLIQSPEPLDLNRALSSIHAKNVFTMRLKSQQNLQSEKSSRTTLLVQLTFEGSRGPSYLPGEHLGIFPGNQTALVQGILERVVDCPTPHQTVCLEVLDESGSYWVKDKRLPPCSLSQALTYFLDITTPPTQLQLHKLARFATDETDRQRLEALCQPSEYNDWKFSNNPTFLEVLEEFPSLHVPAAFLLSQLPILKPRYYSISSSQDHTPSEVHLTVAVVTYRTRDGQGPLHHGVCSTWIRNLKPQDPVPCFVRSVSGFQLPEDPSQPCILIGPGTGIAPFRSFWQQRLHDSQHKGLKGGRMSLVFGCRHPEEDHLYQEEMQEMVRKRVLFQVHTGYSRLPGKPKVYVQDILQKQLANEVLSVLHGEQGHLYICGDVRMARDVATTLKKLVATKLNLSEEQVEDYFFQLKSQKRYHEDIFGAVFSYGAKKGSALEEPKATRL
Data set [9] deals with receptors (Bioprint panel) (Homo sapiens, UniProt P14867). Nature of the data set: biochemical. Format: binding.
Chain of receptors (Bioprint panel) (Homo sapiens, UniProt P14867) (P14867 28-456): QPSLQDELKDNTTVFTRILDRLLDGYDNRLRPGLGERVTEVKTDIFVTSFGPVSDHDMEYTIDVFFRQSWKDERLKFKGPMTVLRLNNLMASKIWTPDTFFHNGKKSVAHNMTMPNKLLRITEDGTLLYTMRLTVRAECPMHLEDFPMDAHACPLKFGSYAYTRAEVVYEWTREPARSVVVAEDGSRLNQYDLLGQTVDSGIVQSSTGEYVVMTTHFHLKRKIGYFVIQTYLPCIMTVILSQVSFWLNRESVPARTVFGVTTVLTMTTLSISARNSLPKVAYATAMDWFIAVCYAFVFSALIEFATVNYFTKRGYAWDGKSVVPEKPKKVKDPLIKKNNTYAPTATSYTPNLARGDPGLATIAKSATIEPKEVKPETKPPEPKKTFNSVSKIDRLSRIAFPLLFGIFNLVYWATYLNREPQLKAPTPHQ
In data set [10] the target is receptors (Bioprint panel) (Homo sapiens, UniProt Q9GZV3). The experiment in a line: biochemical. Format: binding. To be noted: choline transporter (CHT1) (h) (antagonist radioligand); read-out: Reference Compound IC50.
Chain of receptors (Bioprint panel) (Homo sapiens, UniProt Q9GZV3) (Q9GZV3 whole entry): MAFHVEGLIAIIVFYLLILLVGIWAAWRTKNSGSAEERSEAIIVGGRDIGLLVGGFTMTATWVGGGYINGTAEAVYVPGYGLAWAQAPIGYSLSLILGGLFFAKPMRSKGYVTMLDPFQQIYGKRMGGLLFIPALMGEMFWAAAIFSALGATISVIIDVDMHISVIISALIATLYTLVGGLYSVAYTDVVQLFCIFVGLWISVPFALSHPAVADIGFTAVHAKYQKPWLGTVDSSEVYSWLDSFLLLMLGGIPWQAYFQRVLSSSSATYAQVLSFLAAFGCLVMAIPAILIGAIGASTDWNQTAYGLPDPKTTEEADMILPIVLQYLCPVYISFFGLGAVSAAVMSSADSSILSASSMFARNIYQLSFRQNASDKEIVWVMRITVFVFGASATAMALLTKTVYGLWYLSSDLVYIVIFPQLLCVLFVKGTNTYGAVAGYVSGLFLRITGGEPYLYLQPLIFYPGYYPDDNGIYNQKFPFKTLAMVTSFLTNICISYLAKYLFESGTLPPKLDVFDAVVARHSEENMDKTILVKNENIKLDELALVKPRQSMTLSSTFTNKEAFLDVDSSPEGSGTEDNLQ
The target of data set [11] is T3, enzymes (Bioprint panel).
T3 construct: other: ATPase (Na+/K+); 10 μM
Nature of the data set: biochemical. The conditions noted are these: read-out: Reference Compound IC50.

A further data set relates to HREC. Nature of the data set: OncoPanel normal cell proliferation assay (3-day). Format: cell-based. The conditions noted are these: 72 h, renal mixed epithelial, 3-day incubation.
For a further data set, the system named is HMEC. Nature of the data set: OncoPanel normal cell proliferation assay (3-day). Format: cell-based.
For data set [12], the system named is 4 normal cell types, CCD 841 CoN, HMEC, HREC and Wi38. Nature of the data set: OncoPanel normal cell proliferation assay (3-day), panel. The conditions noted are these: the other three cell lines (CCD 841 CoN, HREC, Wi38). Format: cell-based.
The test system of the next data set is CCD 841 CoN. The experiment in a line: OncoPanel normal cell proliferation assay (3-day). Format: cell-based. To be noted: Homo sapiens, 72 h, colon epithelial, 3-day incubation.
The next data set has as its system Wi38. Nature of the data set: OncoPanel normal cell proliferation assay (3-day). Format: cell-based. To be noted: Homo sapiens, WI-38, 72 h, Wi38, lung fibroblast, 3-day incubation.
Data set [13] has as its target receptors (Bioprint panel) (Homo sapiens, UniProt P35348). Nature of the data set: biochemical. Format: binding. The conditions noted are these: read-out: Reference Compound IC50.
For data set [14], the target named is receptors (Bioprint panel) (Homo sapiens, UniProt Q9H3N8). The experiment in a line: biochemical. Format: binding. The conditions noted are these: read-out: Reference Compound IC50.
Chain of receptors (Bioprint panel) (Homo sapiens, UniProt Q9H3N8) (Q9H3N8 whole entry): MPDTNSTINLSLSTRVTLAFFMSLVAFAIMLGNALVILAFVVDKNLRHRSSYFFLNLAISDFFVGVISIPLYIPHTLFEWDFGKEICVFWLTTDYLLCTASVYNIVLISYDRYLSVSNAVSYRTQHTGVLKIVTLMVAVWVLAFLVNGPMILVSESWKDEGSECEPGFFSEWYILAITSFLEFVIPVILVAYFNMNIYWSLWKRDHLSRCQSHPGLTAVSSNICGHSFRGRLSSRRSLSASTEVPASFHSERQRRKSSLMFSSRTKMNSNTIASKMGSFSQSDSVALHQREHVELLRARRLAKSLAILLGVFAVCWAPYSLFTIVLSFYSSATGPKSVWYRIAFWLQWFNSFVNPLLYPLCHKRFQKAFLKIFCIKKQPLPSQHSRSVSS
Data set [15] deals with IL-17A secretion from human PBMC stimulated with antiCD3/antiCD28-coated beads. The conditions noted are these: assay description, reference compound, cited from earlier work.
The target of data set [16] is T4, enzymes (Bioprint panel) (UniProt A0ABM2YAB8).
T4 construct: other: MT3 (ML2) (agonist radioligand); 10 μM
T4 sequence (A0ABM2YAB8 entry or part of it): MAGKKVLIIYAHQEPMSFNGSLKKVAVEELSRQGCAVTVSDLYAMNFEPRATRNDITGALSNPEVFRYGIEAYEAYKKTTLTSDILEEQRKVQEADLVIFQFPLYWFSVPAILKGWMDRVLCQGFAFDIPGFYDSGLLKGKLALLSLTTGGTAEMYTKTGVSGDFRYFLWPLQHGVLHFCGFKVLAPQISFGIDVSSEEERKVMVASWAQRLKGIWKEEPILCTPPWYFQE
Nature of the data set: biochemical. To be noted: read-out: Reference Compound IC50.

The target in data set [17] is enzymes (Bioprint panel). The experiment in a line: biochemical. The conditions noted are these: COMT (catechol- O-methyl transferase); read-out: Reference Compound IC50.

A word on the IC50: it is the concentration needed to halve the response being measured. A word on the EC50: it is the midpoint of the concentration-response curve. As a reminder, the GI50 is the concentration that inhibits growth by half.

Like-named read-outs stand apart in the source and are kept apart here.

Chain of receptors (Bioprint panel) (Homo sapiens, UniProt P35348) (P35348 whole entry): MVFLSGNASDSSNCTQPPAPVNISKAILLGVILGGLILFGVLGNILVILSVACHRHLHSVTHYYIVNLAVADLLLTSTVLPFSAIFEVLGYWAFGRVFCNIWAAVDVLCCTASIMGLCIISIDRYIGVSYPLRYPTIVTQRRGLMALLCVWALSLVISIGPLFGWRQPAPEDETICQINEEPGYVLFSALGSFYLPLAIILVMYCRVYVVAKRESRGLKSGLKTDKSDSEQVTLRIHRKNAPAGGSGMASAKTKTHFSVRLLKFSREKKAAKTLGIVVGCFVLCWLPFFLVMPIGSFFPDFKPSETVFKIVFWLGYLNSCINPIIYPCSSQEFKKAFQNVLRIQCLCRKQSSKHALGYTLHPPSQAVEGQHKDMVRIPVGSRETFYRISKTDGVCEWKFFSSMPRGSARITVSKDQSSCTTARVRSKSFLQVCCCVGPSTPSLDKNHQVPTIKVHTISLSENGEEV
Chain of receptors (Bioprint panel) (Homo sapiens, UniProt P41595) (P41595 whole entry): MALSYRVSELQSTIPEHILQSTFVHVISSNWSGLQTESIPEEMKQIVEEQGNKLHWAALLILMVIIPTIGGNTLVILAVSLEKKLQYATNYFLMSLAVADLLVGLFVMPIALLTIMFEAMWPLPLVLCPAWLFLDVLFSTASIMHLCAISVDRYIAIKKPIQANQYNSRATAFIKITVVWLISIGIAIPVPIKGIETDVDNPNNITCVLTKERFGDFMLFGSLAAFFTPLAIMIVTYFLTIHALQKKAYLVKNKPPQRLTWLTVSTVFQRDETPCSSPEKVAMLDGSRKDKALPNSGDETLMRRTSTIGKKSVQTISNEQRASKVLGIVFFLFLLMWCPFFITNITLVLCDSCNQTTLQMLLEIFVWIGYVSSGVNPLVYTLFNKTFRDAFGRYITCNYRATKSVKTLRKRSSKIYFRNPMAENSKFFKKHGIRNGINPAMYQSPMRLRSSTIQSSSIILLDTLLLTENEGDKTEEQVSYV
Chain of receptors (Bioprint panel) (Homo sapiens, UniProt P41597) (P41597 whole entry): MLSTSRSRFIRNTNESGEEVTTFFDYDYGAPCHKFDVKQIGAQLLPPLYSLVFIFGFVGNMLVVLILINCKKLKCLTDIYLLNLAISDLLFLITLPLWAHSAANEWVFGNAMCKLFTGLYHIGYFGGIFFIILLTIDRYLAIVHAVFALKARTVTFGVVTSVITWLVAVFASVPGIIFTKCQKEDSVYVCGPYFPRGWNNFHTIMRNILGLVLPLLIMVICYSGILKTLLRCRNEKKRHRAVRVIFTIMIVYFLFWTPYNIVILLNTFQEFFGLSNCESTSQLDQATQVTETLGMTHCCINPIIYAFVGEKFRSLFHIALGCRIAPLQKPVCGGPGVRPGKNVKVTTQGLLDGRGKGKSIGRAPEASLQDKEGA

For the compound `COc1cc(CC(C)N)c(OC)cc1I` (racemic) [(±)DOI], the half-inhibitory concentration (IC50) in [1] came to 0.24 nM; in data set [2] it was 6.7 nM.

For `COc1ccccc1S(=O)(=O)Nc1ccc2c(c1)CN(C)C(=O)N2` [PFI-1, reference compound], the IC50 at BRD3(2) (h) bromodomain [3] and on BRD3(2) (h) bromodomain [4] was 790 nM each time.

With `CCCCCC[C@@H]([C@@H](C)O)n1cnc2c(N)ncnc21` (racemic) [EHNA], the IC50 at enzymes (Bioprint panel) [5] was determined as 1200 nM.

`COC(=O)[C@H](c1ccccc1Cl)N1CCc2sccc2C1` [clopidogrel, reference compound] had an IC50 in data set [6] of 390 nM.

As for MCP-1, the IC50 in [7] came out at 0.087 nM.

Consider `CC(=N)NCc1cccc(CN)c1` [1400 W], for which the IC50 at enzymes (Bioprint panel) [8] is 29 nM.

For `NCc1cc(=O)[nH]o1` [muscimol], in data set [9], the IC50 came to 53 nM.

Turning to `C[N+]1(C)CCOC(O)(c2ccc(-c3ccc(C4(O)C[N+](C)(C)CCO4)cc3)cc2)C1` (stereo not drawn) [hemicholinium-3], in [10], the IC50 was 4.6 nM.

For the compound `C[C@@H]1O[C@@H](O[C@H]2C[C@@H](O)[C@]3(CO)[C@H]4[C@H](O)C[C@]5(C)[C@@H](C6=CC(=O)OC6)CC[C@]5(O)[C@@H]4CC[C@]3(O)C2)[C@H](O)[C@H](O)[C@H]1O` [ouabain], the IC50 on enzymes (Bioprint panel) [11] is 250 nM.

As for `CC(=O)O[C@H]1C(=O)[C@@]2(C)[C@H]([C@H](OC(=O)c3ccccc3)[C@]3(O)C[C@H](OC(=O)[C@H](O)[C@@H](NC(=O)c4ccccc4)c4ccccc4)C(C)=C1C3(C)C)[C@]1(OC(C)=O)CO[C@@H]1C[C@@H]2O` [Paclitaxel, paclitaxel], the EC50 in the data set on HREC (read-out: Cell Count EC50) is 1.72 nM; in the data set on HMEC (Homo sapiens, 72 h, HMEC, mammary epithelial, 3-day incubation, read-out: Cell Count EC50), > 30000 nM; in the data set with CCD 841 CoN (read-out: Cell Count EC50), 11.9 nM; with Wi38 (read-out: Cell Count EC50), 3.9 nM. Besides, the 50% growth inhibitory concentration (GI50) in the data set on HREC (read-out: Cell Count GI50) is 1.6 nM; in the data set on HMEC (Homo sapiens, 72 h, HMEC, mammary epithelial, 3-day incubation, read-out: Cell Count GI50), > 30000 nM; in the data set with CCD 841 CoN (read-out: Cell Count GI50) it was 22.1 nM; in the data set on Wi38 (read-out: Cell Count GI50), 3.6 nM. Moreover, the IC50 in the data set with HREC (read-out: Cell Count IC50) is 48.4 nM; in the data set with HMEC (Homo sapiens, 72 h, HMEC, mammary epithelial, 3-day incubation, read-out: Cell Count IC50), > 30000 nM; with Wi38 (read-out: Cell Count IC50) it was 9.41 nM. The entries for the “toxicity towards normal cells” value (in the data set with HMEC; in [12]) were “low toxicity” and “high toxicity”, respectively.

For `COc1cccc(OC)c1OCCNCC1COc2ccccc2O1` (stereo not drawn) [WB 4101], the IC50 in [13] worked out at 0.27 nM.

With `N=C(N)SCCc1cnc[nH]1` [imetit], the IC50 in data set [14] was determined as 4.7 nM.

For the compound `C=CC[C@@H]1/C=C(\C)C[C@H](C)C[C@H](OC)[C@H]2O[C@@](O)(C(=O)C(=O)N3CCCC[C@H]3C(=O)O[C@H](/C(C)=C/[C@@H]3CC[C@@H](O)[C@H](OC)C3)[C@H](C)[C@@H](O)CC1=O)[C@H](C)C[C@@H]2OC` [Tacrolimus], the “Emax (plateau of the fitted curve), IL-17A release” value in data set [15] is “approximately 90%”. In data set [15] (read-out: EC50, inhibition of IL-17A release), the EC50 was ~0.34 nM.

Turning to `COc1ccc2[nH]cc(CCNC(C)=O)c2c1` [melatonin], on enzymes (Bioprint panel) [16], the IC50 was found to be 160 nM.

As to `O=C(c1cc(O)c(O)c([N+](=O)[O-])c1)c1ccccc1F` [Ro 41-0960], at enzymes (Bioprint panel) [17], the concentration for half-maximal inhibition (IC50) stood at 61 nM.

The values above are taken from patent publication US11331299B2, “Medicinal use of serrulatane diterpenes” (The University of Sydney, priority 2016, dated 2022).
